# Results: patent US20170105969A1, “CENICRIVIROC FOR THE TREATMENT OF HIV-2 INFECTION” (Tobira Therapeutics, Inc., priority 2014, published 2017)
# Marks after values point to notes of the source that are not given here.
# How the values were obtained:
# CCR3 = biological target: T1, CCR3 (Homo sapiens, UniProt P51677); test: Ligand binding to CCR3
# T1 sequence (P51677 1-355): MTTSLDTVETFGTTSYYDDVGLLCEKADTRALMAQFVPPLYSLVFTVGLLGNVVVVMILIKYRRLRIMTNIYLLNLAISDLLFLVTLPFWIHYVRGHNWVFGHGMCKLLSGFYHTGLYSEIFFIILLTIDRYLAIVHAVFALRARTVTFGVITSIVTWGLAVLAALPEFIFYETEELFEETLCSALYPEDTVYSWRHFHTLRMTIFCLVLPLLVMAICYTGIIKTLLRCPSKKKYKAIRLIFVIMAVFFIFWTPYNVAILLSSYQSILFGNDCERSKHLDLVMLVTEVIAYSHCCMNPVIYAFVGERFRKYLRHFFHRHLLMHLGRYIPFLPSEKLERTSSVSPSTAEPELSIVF
# HIV-1 [1] = test: Study 202: virologic response (plasma HIV-1 RNA <50 copies/mL), Snapshot algorithm, ITT; type: in vivo, human
# CCR4 = biological target: T2, CCR4 (Homo sapiens, UniProt P51679); test: Ligand binding to CCR4
# T2 sequence (P51679 1-360): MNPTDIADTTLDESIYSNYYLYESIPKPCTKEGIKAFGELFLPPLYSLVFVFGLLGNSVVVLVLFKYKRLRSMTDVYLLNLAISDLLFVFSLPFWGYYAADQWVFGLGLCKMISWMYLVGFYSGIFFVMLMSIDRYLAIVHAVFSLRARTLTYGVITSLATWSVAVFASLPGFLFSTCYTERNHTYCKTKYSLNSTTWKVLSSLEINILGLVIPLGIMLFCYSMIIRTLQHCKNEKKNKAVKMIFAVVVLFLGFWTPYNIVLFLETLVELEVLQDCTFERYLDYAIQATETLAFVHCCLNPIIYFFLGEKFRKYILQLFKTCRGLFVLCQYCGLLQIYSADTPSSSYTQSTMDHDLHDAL
# HIV-1 [2] = test: Study 202: virologic response (plasma HIV-1 RNA <50 copies/mL), Snapshot algorithm, ITT; type: in vivo, human; conditions: Week 24
# Source text: The primary efficacy endpoint was the percentage of subjects with plasma HIV-1 RNA <50 copies/mL at Week 24 (using the FDA Snapshot algorithm and the ITT population).
# MCP-1 = test: Study 201: inflammatory markers MCP-1, hs-CRP, IL-6; type: in vivo, human
# Source text: Exploratory efficacy endpoints included changes in the inflammatory markers MCP-1, hs-CRP, and IL-6.
# (§1) Subjects were antiretroviral treatment experienced, CCR5 antagonist-naïve, with HIV-1 RNA levels of at least 5000 copies/mL and CD4+ cell counts of at least 250 cells/mm^3. Subjects with HIV-2, hepatitis B virus, or hepatitis C virus co-infection or dual/mixed-tropic HIV-1 were ineligible. Other than their HIV-1 infection, subjects were generally healthy.
# CCR5-tropic HIV-1 = test: Study 201: plasma HIV-1 RNA over 10 days of CVC monotherapy; type: in vivo, human; conditions: for subjects who achieved HIV-1 RNA levels <400 copies/mL: over the entire study; for HIV-1 RNA, LS mean (SEM) change from Baseline / HIV-1 RNA, Median change from Baseline: Day 11
# Description: as §1
# (§2) In this study, all dose groups received the original formulation (DP3_25), except the 100 mg dose group which received an alternative formulation (DP4_100). […] These subjects were excluded from the efficacy, PK, and PK/PD data, but included in the baseline and safety data. In this study, safety and tolerability were assessed by monitoring AEs, vital signs, ECGs, clinical laboratory values from blood and urine, and physical examinations. Data from all subjects on placebo were pooled for the analyses.
# CCR5 = CCR5 (Homo sapiens, UniProt P51681); test: CCR5 receptor occupancy / internalization in PBMCs by flow cytometry; type: cell-based
# CCR5, sequence (P51681 whole entry): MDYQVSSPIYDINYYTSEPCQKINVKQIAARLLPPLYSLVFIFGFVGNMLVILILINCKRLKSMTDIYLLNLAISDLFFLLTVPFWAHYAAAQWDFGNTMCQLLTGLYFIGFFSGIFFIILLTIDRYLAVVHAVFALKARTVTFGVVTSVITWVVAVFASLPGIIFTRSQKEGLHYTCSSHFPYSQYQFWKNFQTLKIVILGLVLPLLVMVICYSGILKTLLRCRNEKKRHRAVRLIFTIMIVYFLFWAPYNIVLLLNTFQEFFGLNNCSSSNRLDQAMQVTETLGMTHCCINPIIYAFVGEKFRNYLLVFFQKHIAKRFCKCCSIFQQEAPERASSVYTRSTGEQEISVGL
# Description: The capacity of each drug to inhibit CCR5 or CCR2 internalization was evaluated. Cell-surface expression of CCR5 and CCR2 was assessed by flow cytometry, and fluorescence values were converted into molecules of equivalent soluble fluorescence (MESF).
# CCR5-tropic HIV-1 BaL = test: PM-1 cells infected with HIV-1 BaL, supernatant P24 and viral load after 4 hours; type: cell-based; conditions: CVC 20 nM or MVC 50 nM
# Description: Early (strong-stop) and late (full-length) reverse transcript levels were measured by qPCR. […] P24 and viral load levels were measured by ELISA and qRT-PCR after 4 hours.
# [3] = Study 201: safety and tolerability (adverse events); type: in vivo, human
# Description: as §1, §2
# [4] = among subjects on CVC presenting with a AE (n=30)
structure (smiles),measurement,setting,value
"CCCCOCCOc1ccc(-c2ccc3c(c2)/C=C(/C(=O)Nc2ccc([S@@+]([O-])Cc4cncn4CCC)cc2)CCCN3CC(C)C)cc1 [CVC, (S)-8-[4-(2-Butoxyethoxy)phenyl]-1-isobutyl-N-(4-{[(1-propyl-1H-imidazol-5-yl)methyl]sulfinyl}phenyl)-1,2,3,4-tetrahydro-1-benzazocine-5-carboxamide]",inhibition of ligand binding (in words),CCR3,weakly inhibited
same,HIV-1 RNA ≧50 but <400 copies/mL,"HIV-1 [1]; Week 24, CVC 100 mg arm",(5%)^d
same,HIV-1 RNA ≧400 copies/mL,"HIV-1 [1]; Week 24, CVC 200 mg arm",(7%)
same,"virologic non-response, subgroup with high baseline viral load (≧100,000 copies/mL)","HIV-1 [1]; Week 48, CVC 100 mg",20%
same,Treatment difference from EFV arm,"HIV-1 [1]; Week 48, CVC 100 mg arm",18%
same,"virologic non-response, subgroup with high baseline viral load (≧100,000 copies/mL)","HIV-1 [1]; Week 48, CVC 200 mg",21%
same,Discontinued study due to AE or death,"HIV-1 [1]; Week 48, CVC 200 mg arm",(2%)
same,Treatment difference from EFV arm,"HIV-1 [1]; Week 48, CVC 200 mg arm",16%
same,"Week 48 non-response, CVC-treated Black or African American subjects","HIV-1 [1]; Week 48, both CVC arms",8-15%
same,inhibition of ligand binding (in words),CCR4,weakly inhibited
same,"virologic non-response, subgroup with high baseline viral load (≧100,000 copies/mL)",HIV-1 [2]; CVC 100 mg,20%
same,HIV-1 RNA ≧400 copies/mL,HIV-1 [2]; CVC 100 mg arm,(7%)
same,Treatment difference from EFV arm,HIV-1 [2]; CVC 100 mg arm,5%
same,"virologic non-response, subgroup with high baseline viral load (≧100,000 copies/mL)",HIV-1 [2]; CVC 200 mg,29%
same,Discontinued study due to AE or death,HIV-1 [2]; CVC 200 mg arm,(2%)
same,HIV-1 RNA ≧50 but <400 copies/mL,HIV-1 [2]; CVC 200 mg arm,(7%)^e
same,Treatment difference from EFV arm,HIV-1 [2]; CVC 200 mg arm,4%
same,"MCP-1, Baseline Mean",MCP-1; 25 mg cohort,20.0 pg/mL
same,"MCP-1, Baseline Median",MCP-1; 25 mg cohort,16.0 pg/mL
same,"MCP-1, Change from Baseline to Day 10, Median",MCP-1; 25 mg once daily,+25.0 pg/mL
same,"MCP-1, Day 10 Mean",MCP-1; 25 mg once daily,75.3 pg/mL
same,"MCP-1, Day 10 Median",MCP-1; 25 mg once daily,39.0 pg/mL
same,"MCP-1, Baseline Mean",MCP-1; 50 mg cohort,12.6 pg/mL
same,"MCP-1, Baseline Median",MCP-1; 50 mg cohort,6.0 pg/mL
same,"MCP-1, Change from Baseline to Day 10, Median",MCP-1; 50 mg once daily,+56.0 pg/mL
same,"MCP-1, Day 10 Mean",MCP-1; 50 mg once daily,101.3 pg/mL
same,"MCP-1, Day 10 Median",MCP-1; 50 mg once daily,65.0 pg/mL
same,"MCP-1, Baseline Mean",MCP-1; 75 mg cohort,26.6 pg/mL
same,"MCP-1, Baseline Median",MCP-1; 75 mg cohort,8.0 pg/mL
same,"MCP-1, Change from Baseline to Day 10, Median",MCP-1; 75 mg once daily,+36.0 pg/mL
same,"MCP-1, Day 10 Mean",MCP-1; 75 mg once daily,59.1 pg/mL
same,"MCP-1, Day 10 Median",MCP-1; 75 mg once daily,43.5 pg/mL
same,"MCP-1, Baseline Mean",MCP-1; 150 mg cohort,31.6 pg/mL
same,"MCP-1, Baseline Median",MCP-1; 150 mg cohort,19.5 pg/mL
same,"MCP-1, Change from Baseline to Day 10, Median",MCP-1; 150 mg once daily,+322.0 pg/mL
same,"MCP-1, Day 10 Mean",MCP-1; 150 mg once daily,372.0 pg/mL
same,"MCP-1, Day 10 Median",MCP-1; 150 mg once daily,368.0 pg/mL
same,effect on hs-CRP or IL-6 levels (in words),MCP-1; 10-day study,no effect
same,"HIV-1 RNA, Baseline LS mean (SEM)","CCR5-tropic HIV-1; 25 mg cohort, Baseline",4.46 (0.18) log10 copies/mL
same,subjects who achieved HIV-1 RNA levels <400 copies/mL,CCR5-tropic HIV-1; 25 mg dose group,1
same,"HIV-1 RNA, Nadir values, Median change from Baseline",CCR5-tropic HIV-1; 25 mg once daily,−0.7 log10 copies/mL
same,Median days to nadir,CCR5-tropic HIV-1; 25 mg once daily,10.0 days
same,"HIV-1 RNA, LS mean (SEM) change from Baseline",CCR5-tropic HIV-1; 25 mg once daily,−0.64 (0.14) log10 copies/mL
same,"HIV-1 RNA, Median change from Baseline",CCR5-tropic HIV-1; 25 mg once daily,−0.5 log10 copies/mL
same,"HIV-1 RNA, Baseline LS mean (SEM)","CCR5-tropic HIV-1; 50 mg cohort, Baseline",4.33 (0.21) log10 copies/mL
same,subjects who achieved HIV-1 RNA levels <400 copies/mL,CCR5-tropic HIV-1; 50 mg dose group,2
same,"HIV-1 RNA, Nadir values, Median change from Baseline",CCR5-tropic HIV-1; 50 mg once daily,−1.6 log10 copies/mL
same,Median days to nadir,CCR5-tropic HIV-1; 50 mg once daily,11.0 days
same,"HIV-1 RNA, LS mean (SEM) change from Baseline",CCR5-tropic HIV-1; 50 mg once daily,−1.13 (0.16) log10 copies/mL
same,"HIV-1 RNA, Median change from Baseline",CCR5-tropic HIV-1; 50 mg once daily,−1.3 log10 copies/mL
same,"HIV-1 RNA, Baseline LS mean (SEM)","CCR5-tropic HIV-1; 75 mg cohort, Baseline",4.65 (0.19) log10 copies/mL
same,"HIV-1 RNA, Nadir values, Median change from Baseline",CCR5-tropic HIV-1; 75 mg once daily,−1.8 log10 copies/mL
same,Median days to nadir,CCR5-tropic HIV-1; 75 mg once daily,10.0 days
same,"HIV-1 RNA, LS mean (SEM) change from Baseline",CCR5-tropic HIV-1; 75 mg once daily,−1.46 (0.15) log10 copies/mL
same,"HIV-1 RNA, Median change from Baseline",CCR5-tropic HIV-1; 75 mg once daily,−1.6 log10 copies/mL
same,"HIV-1 RNA, Baseline LS mean (SEM)","CCR5-tropic HIV-1; 150 mg cohort, Baseline",4.10 (0.19) log10 copies/mL
same,subjects who achieved HIV-1 RNA levels of <50 copies/mL,CCR5-tropic HIV-1; 150 mg dose group,2
same,subjects who achieved HIV-1 RNA levels <400 copies/mL,CCR5-tropic HIV-1; 150 mg dose group,3
same,"HIV-1 RNA, Nadir values, Median change from Baseline",CCR5-tropic HIV-1; 150 mg once daily,−1.7 log10 copies/mL
same,Median days to nadir,CCR5-tropic HIV-1; 150 mg once daily,11.0 days
same,"HIV-1 RNA, LS mean (SEM) change from Baseline",CCR5-tropic HIV-1; 150 mg once daily,−1.42 (0.16) log10 copies/mL
same,"HIV-1 RNA, Median change from Baseline",CCR5-tropic HIV-1; 150 mg once daily,−1.5 log10 copies/mL
same,drug resistance testing (in words),"CCR5-tropic HIV-1; Baseline, Day 7, Day 40, all subjects with evaluable samples",remained fully susceptible
same,effective concentration at which saturation of CCR5 was reached,CCR5; CD4+ T cells,3.1 nM
same,concentration achieving ≧90% receptor occupancy for CCR5,CCR5; CD4+ T-cells ex vivo in humans,3.1 nM
same,effective concentration at which saturation of CCR5 was reached,CCR5; CD8+ T cells,2.3 nM
same,concentration achieving ≧90% receptor occupancy for CCR5,CCR5; CD8+ T-cells ex vivo in humans,2.3 nM
same,prevention of RANTES-induced CCR5 internalization (in words),CCR5; PBMCs,at lower effective concentrations than MVC
same,cell-surface expression of CCR5 (in words),"CCR5; in the absence of RANTES, PBMCs",increased cell-surface expression of CCR5
same,supernatant P24,CCR5-tropic HIV-1 BaL; 0 hrs (baseline),506 ng/mL
same,viral load,CCR5-tropic HIV-1 BaL; 0 hrs,1.19×10^10 copies/ml
same,supernatant P24,CCR5-tropic HIV-1 BaL; 4 hrs,192 ng/mL
same,viral load,CCR5-tropic HIV-1 BaL; 4 hrs,1.26×10^10 copies/ml
same,treatment-emergent AE: diarrhea,[3],16.7%
same,treatment-emergent AE: fatigue,[3],11.0%
same,treatment-emergent AE: headache,[3],14.8%
same,treatment-emergent AE: nausea,[3],18.5%
same,subjects with mild AEs,[3]; [4],80%
same,subjects with moderate AEs,[3]; [4],17%
same,tolerability (in words),[3]; doses between 25 mg and 150 mg,generally well tolerated
